Measurements taken from PubChem BioAssay AID179 (DTP/NCI, 2004).
The source made the active and inactive calls.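 How the source made its calls: active means compounds giving half or more protection of infected cells from virus-caused growth loss, again on retest; inactive means the rest.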 Where a SMILES comes first, the peptide text is derived from it. The star is where a group is joined. Cbz = O=C(OCc1ccccc1)*; CH2Cl = ClC*

Tested on: CEM cells HIV-1 protection, formazan growth assay
Assay: NCI AIDS Antiviral Assay
Conditions: for IC50: measured here: growth of uninfected CEM cells
In short: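 Human CEM cells, uninfected and HIV-1-infected, received five drug concentrations, and growth was read by soluble formazan assay. Compounds giving at least 50% protection were retested; reproducible 100% protection defined confirmed active.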

| Compound | EC50 | IC50 | outcome |
| --- | --- | --- | --- |
| CN(C)c1ccc(C=NC23CC4CC(CC(C4)C2)C3)cc1 | > 63.1 µM | > 63.1 µM |  |
| O=C1NC2(CCCCC2)C(OCCO)C12CCCCC2 (stereo unspecified) | > 316 µM | > 316 µM |  |
| CCCCc1cc(=O)oc2c3c(c4c(c12)OC(C)(C)CC4)O[C@@H](C)[C@H](C)[C@@H]3O | 2.69 µM | 10.5 µM |  |
| Cc1ccc(C(=O)/C=C/c2ccc3c(c2)OCO3)cc1 | > 19.5 µM | > 19.5 µM |  |
| O=C(O)CCCCCCCCCCCCl | > 200 µM | 91.2 µM |  |
| Cc1c(O)c(OC2OC(CO)C(O)C(O)C2O)cc2c1C=C[C@@H]1[C@@]2(C)C(=O)C[C@]2(C)[C@@H]([C@@](C)(O)C(=O)CCC(C)(C)O)[C@H](O)C[C@@]12C (stereo partly specified) | > 200 µM | 93.3 µM |  |
| NC(=O)CNC(=O)c1ccccc1SC(=O)OCCBr | 7.08 µM | > 200 µM |  |
| CCc1ccc(N2C(=O)C(CC(=O)O)SC23C(=O)N(Cc2ccccc2)c2ccccc23)cc1 (stereo unspecified) | > 525 µM | 28.8 µM |  |
| COc1cc(NCc2ccc3nc(OC)c(OC)nc3c2)cc(OC)c1OC | > 200 µM | > 200 µM |  |
| CC1=NN(C(=O)Cc2ccccc2)C(=O)/C1=C\c1ccco1 | > 64.6 µM | > 64.6 µM |  |
| Cc1[nH]nc2c1NC(=O)OC2 | > 1170 µM | > 1170 µM |  |
| CCCCC1=C(C(=O)N2CCOCC2)C2(OCCO2)C1=O | > 200 µM | 53.7 µM |  |
| O=c1c2cc(Br)ccc2ncn1COCc1ccccc1 | > 200 µM | 89.1 µM |  |
| CC(=N\NC(=O)c1ccccc1)/C(C)=N/NC(=O)c1ccccc1 | > 30.9 µM | > 30.9 µM |  |
| O=C(Nc1cccc([N+](=O)[O-])c1)c1n[nH]n(-c2cccc([N+](=O)[O-])c2)c1=O | > 200 µM | > 200 µM |  |
| CC1=NN(c2ccccc2)C(=O)C1=C1SCCS1 | > 182 µM | > 182 µM |  |
| COC(=O)C(/C(=N\O)C(=O)Nc1ccc(Br)cc1)c1nc2ccccc2[nH]c1=O (stereo unspecified) | > 141 µM | > 141 µM |  |
| O=C1CC23CC4CC(CC(C4)C2O1)C3 (stereo unspecified) | > 200 µM | > 200 µM |  |
| CCN(CC)CCNc1ccc(CO)c2oc3ccc(OS(=O)(=O)c4ccc(C)cc4)cc3c(=O)c12 | > 51.3 µM | 8.91 µM |  |
| CCOc1ccccc1NC(=O)C(=O)CC(=O)C1=C(C)Nc2ccccc2S1 | > 117 µM | > 117 µM |  |
| O=C(CCN1CCCCC1CCO)Nc1ccc2c(c1)C(=O)c1ccc(NC(=O)CCN3CCCCC3CCO)cc1C2=O (stereo unspecified) | > 200 µM | 2.63 µM |  |

| Compound | EC50 | IC50 | outcome |
| --- | --- | --- | --- |
| CCN(CC)CC(=O)N(CC)c1ccc(C)c(Cl)c1 | > 200 µM | > 200 µM |  |
| S=C1C(CCCOCc2ccccc2)C2CCCC23CC2(CCN13)OCCS2 (stereo unspecified) | > 200 µM | 39.8 µM |  |
| CN1CCN(CC(=O)Nc2cccc3ccccc23)CC1 | > 200 µM | > 200 µM |  |
| COC1C(N)C(OC2C(Oc3cccc4c(O)c5c(=O)oc6ccc(C)c7c(=O)oc(c34)c5c67)OC(C)C(O)C2(C)O)OC(C)C1O (stereo unspecified) | > 0.2 µM | 0.0363 µM |  |
| CC1(C)CCc2cc3c(cc2O1)OCCC3O (stereo unspecified) |  |  | inactive |
| COc1ccccc1-n1cnc2c1NC(C)(C)N=C2C(N)=O | > 200 µM | > 200 µM |  |
| CCCCN(CCCC)CC(C(=O)Nc1ccc([N+](=O)[O-])cc1[N+](=O)[O-])/C(C)=N\NC(=S)NN (stereo unspecified) | > 52.5 µM | > 52.5 µM |  |
| CCOC(=O)/C=C/C1OC(C)(C)OC1/C=C/C(=O)OCC (stereo unspecified) | > 200 µM | 27.5 µM |  |
| C1CNCCSCCCSCCNC1 | > 200 µM | > 200 µM |  |
| CCCc1cc(=O)oc2c3c(c4c(c12)OC(N)=C(C#N)C4c1ccccc1)O[C@H](C)[C@@H](C)C3=O (stereo partly specified) | > 200 µM | 8.71 µM |  |
| Cc1cc2c(C=O)[nH]nc2c(C#N)c1C |  |  | inactive |
| N#Cc1c(=O)n(-c2ccccc2)c(O)c2c(N)n[nH]c12 | > 200 µM | 89.1 µM |  |
| O=C(CC(=O)Nc1ccccc1O)Nc1ccccc1O | > 447 µM | 22.4 µM |  |
| CC(=O)Nc1c(S(=O)(=O)c2ccccc2)c(C)c(C)n1Cc1ccccc1 | > 200 µM | 132 µM |  |
| Cc1cn([C@H]2C[C@@H]3[C@@H](COC(CCc4ccccc4)N3O)O2)c(=O)[nH]c1=O (stereo partly specified) | 95.5 µM | 151 µM |  |
| COc1ccc(N2C(=O)c3c(c4[nH]c5ccccc5c4c4ccc(C(C)(C)C)cc34)C2=O)cc1 | > 11.5 µM | > 11.5 µM |  |
| CC1=C(C)CP(=O)(c2ccccc2)C1 | 0.0631 µM | > 200 µM |  |
| Nc1cc(=O)[nH]c(SC2=NC(N)CC(O)C2)n1 (stereo unspecified) |  |  | inactive |
| COP1(=S)OCC2OC(n3cc(C)c(=O)[nH]c3=O)CC2O1 (stereo unspecified) | > 100 µM | > 100 µM |  |
| CC(C)(C)[Si](C)(C)OCC1OC(n2ccc(=O)[nH]c2=O)C(O[Si](C)(C)C(C)(C)C)C12OC2C(=O)NO (stereo unspecified) | > 20 µM | 1.45 µM |  |
| C=CCCON(C(=O)OC(C)(C)C)C(C)(C)C | > 200 µM | > 200 µM |  |

| Compound | EC50 | IC50 | outcome |
| --- | --- | --- | --- |
| Nc1ccc([N+](=O)[O-])cc1CN1C(=O)c2ccccc2C1=O | > 200 µM | > 200 µM |  |
| O=C1C(c2ccc([N+](=O)[O-])cc2)=C(Cl)C(=O)c2c(O)cccc21 | > 398 µM | 8.71 µM |  |
| OCC1NC(COC2OC(CO)C(O)C(O)C2O)C(O)C(O)C1O (stereo unspecified) |  |  | inactive |
| C=CCN1CN(c2ccccc2)C2(CCN(CCCC3(c4ccc(F)cc4)OCCO3)CC2)C1=O | > 200 µM | 11.5 µM |  |
| Nc1nc2c(C(=O)O)c3ccc([N+](=O)[O-])cc3c(=O)n2c2ccccc12 | > 200 µM | 15.8 µM |  |
| CC(C)n1c(=O)[nH]n(-c2ccccc2)c1=O | > 200 µM | > 200 µM |  |
| C/C(=N/NC(=S)N1CC2CCC(CC2)C1)c1cnccn1 | > 2.24 µM | 0.049 µM |  |
| O=C1CCCCC1CN(Cc1ccccc1)Cc1ccccc1 (stereo unspecified) |  |  | inactive |
| Cc1cc(=O)c2c(O)cc(O)c(C3CCN(C)CC3O)c2o1 (stereo unspecified) | > 1020 µM | 17 µM |  |
| CC(C)CC(NC(=O)OCc1ccccc1)C(=O)NC(Cc1ccccc1)C(=O)CCl (stereo not drawn) (Cbz-Leu-Phe-CH2Cl; configuration not given here) | > 20 µM | 1 µM |  |
| CCCCCCN(C(=O)Oc1ccccc1)C(C#N)c1ccccc1 (stereo unspecified) | > 200 µM | > 200 µM |  |
| COC1=CC(=O)[C@H]2[C@H](C)C(c3ccccc3)[C@@]2(C)C1=O (stereo partly specified) | > 933 µM | 603 µM |  |
| CC(=O)OCC1=C(C)C[C@H]([C@@H](COC(C)=O)C2CCC3C4C[C@H]5O[C@]56CC=CC(=O)[C@]6(C)C4CC[C@@]32C)OC1=O (stereo partly specified) | > 200 µM | 0.135 µM |  |
| O=C1c2scnc2-c2nccc3c2c1nc1ccccc13 | > 2.51 µM | 0.457 µM |  |
| Cn1cc(NC(=O)c2nc(NC(=O)c3nc(NC(=O)/C=C/C(=O)Nc4cn(C)c(C(=O)Nc5cn(C)c(C(=O)Nc6cn(C)c(C(=O)NCCC(=N)N)n6)n5)n4)cn3C)cn2C)nc1C(=O)NCCC(=N)N | > 50.1 µM | 8.51 µM |  |
| COC(=O)C(Cc1nc2ccccc2[nH]c1=O)C(=O)C(=O)Nc1ccc(OC)cc1[N+](=O)[O-] (stereo unspecified) | > 398 µM | > 398 µM |  |
| O=c1nc2n(cc1F)C1OC(CCl)C(O)C1O2 (stereo unspecified) | > 200 µM | > 200 µM |  |
| c1ccc(-c2nc3ccccc3nc2SCc2cccnc2)cc1 | > 7.94 µM | > 7.94 µM |  |
| C(CCCCc1nnc(N2CCOCC2)o1)CCCc1nnc(N2CCOCC2)o1 | > 200 µM | 107 µM |  |
| COC(=O)C(Cc1c[nH]c2ccccc12)NP(=O)(O)OCC1OC(n2cc(Br)c(=O)[nH]c2=O)CC1O (stereo unspecified) | > 200 µM | > 200 µM |  |
| NC(=O)C(NN=C(c1ccccc1)c1ccccc1)c1ccccc1 (stereo unspecified) |  |  | inactive |

| Compound | EC50 | IC50 | outcome |
| --- | --- | --- | --- |
| CCOP(=O)(C=C=C1CCC2[C@@H]3CCc4cc(OC)ccc4C3CC[C@]12C)OCC (stereo partly specified) | > 200 µM | 2.09 µM |  |
| c1ccc(-c2nc3c(N4CCOCC4)ncnc3o2)cc1 | > 25.7 µM | > 25.7 µM |  |
| O=C1N[C@@H]([C@H](CCCCCO)OC(=O)c2ccccc2)CO1 | > 200 µM | > 200 µM |  |
| COC(=O)C1C=CCON2CCc3c(n(C)c4ccccc34)C12 (stereo unspecified) | > 22.9 µM | > 22.9 µM |  |
| NC(N)=NS(=O)(=O)c1ccc(NCc2c3ccccc3[n+]([O-])c3ccccc23)cc1 |  |  | inactive |
| N=CCCN(CCC=N)c1ccc(/C=C2\CN(NC(=O)c3ccc(Cl)cc3)C(c3ccccc3)=N2)cc1 | > 70.8 µM | > 70.8 µM |  |
| CCCCCn1c(=O)c2c(=O)[nH][nH]c2c2ccccc21 | > 200 µM | > 200 µM |  |
| O=C1c2nn(-c3ccccc3)nc2C(c2ccccc2)N1c1ccccc1 (stereo unspecified) | > 14.8 µM | > 14.8 µM |  |
| CSC(=NCCCCN=C(NS(=O)(=O)c1ccc(Cl)cc1)SC)NS(=O)(=O)c1ccc(Cl)cc1 | > 200 µM | > 200 µM |  |
| COc1ccc(C2S/C(=C\c3ccccc3)C(=O)N2NC(=O)Cc2ccccc2)cc1 (stereo unspecified) | > 23.4 µM | 19.1 µM |  |
| CC(O[Si](c1ccccc1)(c1ccccc1)C(C)(C)C)[C@H](NC(=O)OC(C)(C)C)C(=O)O[Si](c1ccccc1)(c1ccccc1)C(C)(C)C (stereo partly specified) | > 26.9 µM | 24 µM |  |
| Cc1cc(C=C2C(=O)NC(=S)NC2=O)c(C)n1-c1ccccc1 | > 6.17 µM | > 6.17 µM |  |
| COc1cc(C2C(C(=O)Nc3ccc(Cl)c(Cl)c3)=C(C)NC(C)=C2C(=O)Nc2ccc(Cl)c(Cl)c2)ccc1O | > 22.4 µM | 12.6 µM |  |
| COc1ccc(Nc2nc(NS(=O)(=O)c3cc(C)c(Cl)cc3S)n[nH]2)cc1 | 178 µM | 257 µM |  |
| O=C1CN(/C=C(\c2ccccc2)S(=O)Cc2ccccc2)C(=S)N1 (stereo unspecified) | > 200 µM | > 200 µM |  |
| CC(=O)OCC1OC(NC(=S)CCSc2nc3ccccc3c(=O)n2-c2ccccc2)C(OC(C)=O)C(OC(C)=O)C1OC(C)=O (stereo unspecified) | > 200 µM | 28.2 µM |  |
| Cc1ccccc1-c1nc2ccc(N)nc2nc1N |  |  | inactive |
| O=c1[nH]c(=O)c2ncn(-c3ccc([N+](=O)[O-])cn3)c2[nH]1 |  |  | inactive |
| CCC(C)[C@H]1C(=O)N=C(N)N1C(=O)OCc1ccccc1 (stereo partly specified) | 195 µM | > 200 µM |  |
| Cn1c(=O)c2ccccc2c2nc3ccccc3nc21 |  |  | inactive |
